Reference: patent US20250281610A1, “P2RY2 ACTIVITY MODULATORS” (Deutsches Krebsforschungszentrum Stiftung des öffentlichen …, priority 2022, published 2025)

Tests used:
[1] = test system: CD33-specific CAR transduced T cells co-cultured with THP-1 cells; experiment: T cell cytokine production in co-culture of CD33-specific CAR-T cells with THP-1 cells; format: cell-based, human; settings: 5 μM AR-C
Method: FIG. 8. Effects of P2RY2 antagonist on T cells and cancer cells in T cell-cancer cell co-cultures. T cells transduced with CD33-specific CAR (CAR-T) were co-cultured with genetically edited THP-1 cells in the absence or presence of 5 μM AR-C 118925XX (AR-C) for 6-24 hours. Control cells: THP-1 cells transduced with non-targeting sgRNA and Cas9 (gNT); P2RY2 deficient cells: THP-1 cells transduced with P2RY2-targeting sgRNA and Cas9 (gP2RY2-3, gP2RY2-4); B7-H3 (CD276) deficient cells: THP-1 cells transduced with B7-H3-targeting sgRNA and Cas9 (gCD276-1); P2RY2 and B7-H3 double deficient cells: THP-1 cells transduced with P2RY2-targeting sgRNA, B7-H3-targeting sgRNA, and Cas9 (gCD276-1 gP2RY2-3 DKO, gCD276-1 gP2RY2-4 DKO); P2RY2 overexpression cells: THP-1 cells transduced with the open reading frame of P2RY2 (P2RY2-OE); B7-H3 overexpression cells: THP-1 cells transduced with the open reading frame of CD276 (CD276-OE). Transduced cancer cells were selected by antibiotics according to antibiotic resistance genes carried by the lentiviral constructs. Flow cytometry analysis of expression of production of IFNγ and TNFα within the CD3+CD8+ cell population is shown (values indicate the percentages of positive cells). For the viability of THP-1 cells, normalized cell counts of viable cells after co-culture with CD33-specific CAR-T cells is shown. The end-point cell counts were normalized to the number of THP-1 cells in cultures without T cells.
MART-1 specific T cells were generated as described (Mezzadra et al., Nature 549, 106-110 (2017); Jorritsma et al., Blood 110 (10): 3564-3572. (2007)). […]
(§1) The open reading frames of transcripts of P2RY2(ENST00000393597.7) or CD276(ENST00000318443.10), were ordered as a codon optimized gBlock Gene Fragment (Integrated DNA Technologies or Twist Bioscience) and cloned into a lentiviral vector containing a blasticidin selection cassette. […]
(§2) MART1-specific CD8+ T cells and MART1 epitope-expressing cancer cells were mixed at a ratio of 1:16 to 1:4. […] T cell activation was assessed by surface staining with anti-CD137-BV421 (4-1BB, Biolegend), anti-CD69-APC/Fire™ 750 (FN50, Biolegend), anti-CD25-AF700 (BC96, Biolegend) antibodies and intracellular staining with anti-IL-2-PE/Cy7 (MQ1-17H12, Biolegend), anti-IFN-7-BV421 (4S.B3, Biolegend), anti-TNF-α-BV785 (MAb11, Biolegend) antibodies, followed by flow cytometry analysis. […] The viability of cancer cells that grow in suspension including THP-1 cells was assessed by flow cytometry-based absolute cell counting using AccuCount beads (Spherotech). For adherent cancer cells including BxPC3 and MCF7, the cell viability was quantified using CellTiter-Blue Cell Viability Assay (Promega).

THP-1 cells = experiment: Viability of THP-1 cells in co-culture with CD33-specific CAR-T cells (flow cytometry-based cell counting); set-up: species or system human; settings: 5 μM AR-C
Method: FIG. 8. Effects of P2RY2 antagonist on T cells and cancer cells in T cell-cancer cell co-cultures. T cells transduced with CD33-specific CAR (CAR-T) were co-cultured with genetically edited THP-1 cells in the absence or presence of 5 μM AR-C 118925XX (AR-C) for 6-24 hours. Control cells: THP-1 cells transduced with non-targeting sgRNA and Cas9 (gNT); P2RY2 deficient cells: THP-1 cells transduced with P2RY2-targeting sgRNA and Cas9 (gP2RY2-3, gP2RY2-4); B7-H3 (CD276) deficient cells: THP-1 cells transduced with B7-H3-targeting sgRNA and Cas9 (gCD276-1); P2RY2 and B7-H3 double deficient cells: THP-1 cells transduced with P2RY2-targeting sgRNA, B7-H3-targeting sgRNA, and Cas9 (gCD276-1 gP2RY2-3 DKO, gCD276-1 gP2RY2-4 DKO); P2RY2 overexpression cells: THP-1 cells transduced with the open reading frame of P2RY2 (P2RY2-OE); B7-H3 overexpression cells: THP-1 cells transduced with the open reading frame of CD276 (CD276-OE). […]
FIG. 9. […] Control cells THP-1 cells transduced with non-targeting sgRNA and Cas9 (Ctrl.); P2RY2 overexpression cells: THP-1 cells transduced with the open reading frame of P2RY2 (P2RY2-OE). […]
as §1
as §2, with “For adherent cancer cells including BxPC3 and MCF7, the cell viability was quantified using CellTiter-Blue Cell Viability Assay (Promega).” left out

[2] = 6-24 hours, P2RY2 proficient THP-1 cells, CD3+CD8+ population (FIG. 8)
[3] = P2RY2 deficient THP-1 cells (FIG. 8)

## Cc1ccc2c(c1)C=Cc1cc(C)ccc1C2c1cn(Cc2ccc(C(=O)Nc3nn[nH]n3)o2)c(=O)[nH]c1=S [AR-C 118925XX]
[1]; [2]
  production of IFNγ by T cells: increased
  production of TNFα by T cells: increased
[1]; [3]
  production of IFNγ in T cell upon P2RY2 deletion: does not influence
  production of TNFα in T cell upon P2RY2 deletion: does not influence
THP-1 cells; 6-24 hours, co-culture with CD33-specific CAR-T cells (FIG. 8)
  viability of P2RY2 proficient THP-1 cells: reduced
THP-1 cells; P2RY2 deficient THP-1 cells, CAR-T cell-THP-1 cell coculture (FIG. 8)
  viability of tumor cells upon P2RY2 deletion: does not influence
